Laboratory results reported in patent US20230372492A1, “DRUGS CONJUGATED WITH HEXOSE PHOSPHATE AND METHODS OF MAKING AND USING SAME” (MISSISSIPPI STATE UNIVERSITY, priority 2020, published 2023).
≈ marks a conversion by molar mass, not a printed value. Where “and” joins values, the source holds several entries; their conditions need not be identical. Identical values can stand only once. Like-named read-outs stand apart in the source and are kept apart here.

How the values were obtained:
[1] = system: UhpT expression (HptARS system) in S. aureus LAC strain; assay: uhpT promoter-LuxABCDE bioluminescent reporter for UhpT expression; type: cell-based, Staphylococcus aureus; settings: 500 μM in brain heart infusion broth
Protocol: FIG. 5 illustrates a LuxABCDE reporter system for monitoring expression of the UhpT by measuring bioluminescent light signals and strong and stable induction of UhpT expression by 3FG6P. S. aureus LAC strain harboring the LuxABCDE reporter system was cultured in a brain heart infusion broth supplemented with 500 μM glucose (Glc), glucose-6-phosphate (G6P), and 3-fluoro-glucose-6-phosphate (3FG6P) and the bioluminescent signal was monitored using a Cytation 5.
To test whether 3FG6P can induce expression of the UhpT, we generated a bioluminescent reporter plasmid in which the promoter region of the uhpT was fused to the promoterless LuxABCDE operon (FIG. 5). See Francis K P, Joh D, Bellinger-Kawahara C, Hawkinson M J, Purchio T F, Contag P R. Monitoring bioluminescent Staphylococcus aureus infections in living mice using a novel luxABCDE construct. Infection and immunity. 2000; 68(6):3594-600. Epub 2000/05/19. PubMed PMID: 10816517; PMCID: PMC97648 and Karsi A, Lawrence M L. Broad host range fluorescence and bioluminescence expression vectors for Gram-negative bacteria. Plasmid. 2007; 57(3):286-95. Epub 2007/01/09. doi: 10.1016/j.plasmid.2006.11.002. PubMed PMID: 17207855 for monitoring of the expression of UhpT by measuring bioluminescent light signals.

[2] = system: Acinetobacter baumannii ATCC BAA1605; assay: MIC by broth microdilution (CLSI M07-A9); type: cell-based; settings: Muller Hinton broth, 37° C.
Protocol: (§1) To test the antimicrobial activity of linezolid and linezolid conjugated with 3FG6P (Lzd-3FG6P) against Gram-positive and Gram-negative pathogens, the pathogens Staphylococcus aureus ATCC 25923, Klebsiella pneumoniae ATCC 35657, Acinetobacter baumannii ATCC BAA1605, Escherichia coli ATCC 25922, Enterobacter cloacae ATCC 13047, Enterobacter aerogenes ATCC13048, and Salmonella typhimurium ATCC 14028 were used. The minimal inhibitory concentration (MIC) was determined using broth microdilution following the instructions of Clinical and Laboratory Standards Institute (CLSI) document M07-A9 (Clinical and Laboratory Standards Institute. 2012. M07-A9. Methods for dilution antimicrobial susceptibility tests for bacteria that grow aerobically: approved standard. 9th ed. Clinical and Laboratory Standards Institute, Wayne, PA). Briefly, these bacterial strains were grown in Muller Hinton broth (MHB) until exponential phage (OD600<1.0). The exponentially grown testing bacteria were diluted to an OD600 of 0.01 in MHB and aliquoted in a 96 well plate. Stocks of linezolid (Lzd) and linezolid conjugated with 3FG6P (Lzd-3FG6P) were prepared at 10 mg/ml in DMSO which was diluted by two-fold serial dilutions from 64 μg/ml to 2 μg/ml (final concentration) and added to the 96 well plate. A DMSO control (0 μg/ml in the figures) was included. The plate was incubated at 37° C. and the growth of bacteria was monitored by measuring OD600 using a Cytation 5 plate reader (BioTek).

[3] = system: Enterobacter aerogenes ATCC13048; assay: MIC by broth microdilution (CLSI M07-A9); type: cell-based; settings: Muller Hinton broth, 37° C.
Protocol: as §1

[4] = system: Enterobacter cloacae ATCC 13047; assay: MIC by broth microdilution (CLSI M07-A9); type: cell-based; settings: Muller Hinton broth, 37° C.
Protocol: as §1

[5] = system: Escherichia coli ATCC 25922; assay: MIC by broth microdilution (CLSI M07-A9); type: cell-based; settings: Muller Hinton broth, 37° C.
Protocol: as §1

[6] = system: Klebsiella pneumoniae ATCC 35657; assay: MIC by broth microdilution (CLSI M07-A9); type: cell-based; settings: Muller Hinton broth, 37° C.
Protocol: as §1

[7] = system: Salmonella typhimurium ATCC 14028; assay: MIC by broth microdilution (CLSI M07-A9); type: cell-based; settings: Muller Hinton broth, 37° C.
Protocol: as §1

[8] = system: Staphylococcus aureus ATCC 25923; assay: MIC by broth microdilution (CLSI M07-A9); type: cell-based; settings: Muller Hinton broth, 37° C.
Protocol: as §1

[9] = system: Gram positive and Gram-negative pathogens; assay: Broth microdilution growth inhibition, summary over all tested pathogens; type: cell-based
Protocol: as §1, with “Stocks of linezolid (Lzd) and linezolid conjugated with 3FG6P (Lzd-3FG6P) were prepared at 10 mg/ml in DMSO which was diluted by two-fold serial dilutions from 64 μg/ml to 2 μg/ml (final concentration) and added to the 96 well plate. A DMSO control (0 μg/ml in the figures) was included.” left out

[10] = system: bioluminescent E. coli strain; assay: Mouse urinary tract infection with bioluminescent E. coli; type: in vivo, C57BL/6 mice; settings: 80 mg/kg intraperitoneal at 2, 24 and 48 hours; 72 hours after infection
Protocol: C57BL/6 mice were transurethrally inoculated with bioluminescent E. coli strain and treated with PBS, linezolid (80 mg/kg), and linezolid conjugated with 3FG6P (80 mg/kg) at 2, 24, and 48 hours after inoculation. 72 hours after inoculation, the progress of the infection was monitored using a IVIS Lumina XR small animal imaging system and the bacterial burden in the kidney and bladder was determined by a plate counting method.
To test the in vivo antimicrobial activity of linezolid and linezolid conjugated with 3FG6P, clinical E. coli strains were constructed that constitutively express a bioluminescent light signal using pLuxABCDE plasmid. See Karsi A. Lawrence M L. Broad host range fluorescence and bioluminescence expression vectors for Gram-negative bacteria. Plasmid. 2007; 57(3):286-95. Epub 2007/01/09. doi: 10.1016/j.plasmid.2006.11.002. PubMed PMID: 17207855 for real time monitoring of the progress of infections. Six- to eight-week old female C57BL/6 mice were purchased from Harlan laboratory and were housed and maintained according to the protocol approved by the institutional animal care and use committee at Mississippi State University. Animals (n=6/group) were transurethrally infected with 50 μl of bioluminescent E. coli strain suspended in PBS (2×10^9 CFU/ml). Animals were treated with an intraperitoneal injection of linezolid (80 mg/kg), linezolid conjugated with 3FG6P (80 mg/kg) or PBS control at 2, 24, and 48 hours after infection. The progress of the infection was monitored by measuring the bioluminescent light signal using an IVIS Lumina X R small animal imaging system. After 72 hours infection, animals were humanely euthanized and the bladder and kidney samples were collected, homogenized, and serially diluted, and the serial dilutions were plated on blood agar to determine the bacterial burden. A transurethral inoculation of E. coli established persistent infections in the kidney and bladder in the absence of antibiotic treatment (PBS control group). The mean bacterial counts in the kidney and bladder were log10 6.328±0.132 and log10 6.171+0.155 CFU/g, respectively (FIG. 12).

[11] = system: fosfomycin resistant UTI E. coli isolates harboring the fosA gene; assay: Growth in BHI broth with fosfomycin, with or without 3FG6P; type: cell-based, Escherichia coli
Excerpt: (§2) FIGS. 13A to 13D show a comparison of the antimicrobial activity of fosfomycin alone (FIG. 13A) and fosfomycin conjugated with 3FG6P or 4FG6P (FIG. 13B) against a fosfomycin resistant E. coli clinical isolate, and fosfomycin alone (FIG. 13C) and fosfomycin conjugated with 3FG6P or 4FG6P (FIG. 13D) against an S. aureus COL strain. The key in FIG. 13D applies to all graphs of FIGS. 13A-13D.
(§3) To test whether 3FG6P and 4FG6P can potentiate the efficacy of fosfomycin, clinical fosfomycin resistant UTI E. coli isolates harboring the fosA gene and S. aureus COL strain were obtained. Overnight cultures of these bacteria were grown in brain heart infusion (BHI) broth diluted to 0.5 McFarland turbidity and inoculated into fresh BHI broth supplemented with various concentrations of fosfomycin alone or fosfomycin supplemented with 3FG6P for E. coli or 4FG6P for S. aureus (50 μM).

S. aureus COL strain = assay: Growth in BHI broth with fosfomycin, with or without 4FG6P; type: cell-based, Staphylococcus aureus
Excerpt: as §2, §3

Enterobacteriaceae = settings: cited from earlier work
[12] = cited from earlier work
[13] = system: methicillin-resistant Staphylococcus aureus (MRSA); settings: cited from earlier work
[14] = system: Staphylococcus epidermidis (MRSE); settings: cited from earlier work
[15] = system: vancomycin-resistant Enterococcus (VRE)faecalis and faecium; settings: cited from earlier work
Neisseria gonorrhea = settings: cited from earlier work
Acinetobacter spp = settings: cited from earlier work
Escherichia coli = settings: cited from earlier work
Klebsiella pneumoniae = settings: cited from earlier work
Proteus penneri = settings: cited from earlier work
Pseudomonas aeruginosa = settings: cited from earlier work
[16] = system: Stenotrophomonas maltophilia; settings: cited from earlier work
[17] = BHI supplemented with 50 μM of 4FG6P

With O=C[C@H](O)[C@@H](O)[C@H](O)[C@H](O)COP(=O)(O)O [glucose-6-phosphate] the “duration of induced bioluminescent light signals” value [1] was 8 h.

In the case of CC(=O)NC[C@H]1CN(c2ccc(N3CCN(C(=O)CCCOC4OC(COP(=O)(O)O)[C@@H](O)C(F)C4O)CC3)c(F)c2)C(=O)O1 (stereo partly shown) [Linezolid-3FG6P], the MIC ([2]; Acinetobacter baumannii, ATCCBAA1605, read-out: MIC) is reported as less than 2 µg/mL, the MIC ([3]; Klebsiella aerogenes, ATCC13048, read-out: MIC) is reported as 4 µg/mL (≈ 6 µM) and the MIC ([4]; Enterobacter cloacae, ATCC13047, read-out: MIC) is reported as less than 2 µg/mL. It also gave an MIC ([5]; Escherichia coli, ATCC25922, read-out: MIC) of 4 µg/mL (≈ 6 µM), an MIC ([6]; Klebsiella pneumoniae, ATCC35657, read-out: MIC) of less than 2 µg/mL and an MIC ([7]; Salmonella enterica, read-out: MIC) of 8 µg/mL (≈ 12 µM). For the same molecule, the MIC ([8]; Staphylococcus aureus, ATCC25923, read-out: MIC) was less than 2 µg/mL, the “concentration range inhibiting growth” value ([9]; both Gram positive and Gram-negative pathogens) was 2 to 8 µg/mL and the “bacterial counts in the bladder” value [10] was “nearly completely cleared the infection”. The “bacterial counts in the kidney” value [10] was “completely cleared the infection”.

In the case of C[C@@H]1O[C@@H]1P(=O)(O)O [fosfomycin], the “fosfomycin concentration at which growth was completely inhibited” value ([11]; BHI supplemented with 50 μM of 3FG6P) is reported as no more than 2 µg/mL, the “fosfomycin concentration up to which growth was allowed” value ([11]; BHI, fosfomycin alone) is reported as “up to 128 μg/ml” and the “fosfomycin concentration at which growth was completely inhibited” value (S. aureus COL strain; [17]) is reported as 32 µg/mL. For the same molecule, the “growth at fosfomycin concentrations lower than 32 μg/ml” value (S. aureus COL strain; [17]) was “significantly delayed”, the “fosfomycin concentration up to which growth was allowed” value (S. aureus COL strain; BHI, fosfomycin alone) was “up to 128 μg/ml” and the “minimum inhibitory concentration (MIC) breakpoint” value (Enterobacteriaceae) was 8 to 32 µg/mL. For the same molecule, the “metabolism in the liver” value ([12]; in vivo) was “not metabolized in the liver” and the oral bioavailability ([12]; oral administration) was 30-37%.

Molecule “(S)—N-[[3-[3-fluoro-4-(N-1-piperazinyl)phenyl]-2-oxo-5-oxazolidinyl]methyl]acetamide [Linezolid]” has an MIC [2] greater than 64 µg/mL, an MIC [3] greater than 64 µg/mL and an MIC [4] greater than 64 µg/mL. It also gave an MIC [5] greater than 64 µg/mL, an MIC [6] greater than 64 µg/mL and an MIC [7] greater than 64 µg/mL. For the same molecule, the MIC [8] was less than 2 µg/mL, the MIC ([8]; listed as linezolid) was “less than 2 μg/ml” and the “concentration failing to inhibit growth” value ([9]; Gram-negative pathogens) was 64 µg/mL. The “bacterial counts in the bladder” value [10] was “did not reduce bacterial counts”, the “bacterial counts in the kidney” value [10] was “did not reduce bacterial counts” and the MIC90 [13] was 1 to 4 µg/mL and 2 µg/mL. For the same molecule, the MIC90 [14] was 1 to 4 µg/mL and 1 µg/mL, the MIC90 [15] was 1 to 4 µg/mL and 2 µg/mL and the MIC90 (Neisseria gonorrhea) was 16 µg/mL. For the same molecule, the antimicrobial activity (Acinetobacter spp) was “not active”, the antimicrobial activity (Escherichia coli) was “not active” and the antimicrobial activity (Klebsiella pneumoniae) was “not active”. The antimicrobial activity (Proteus penneri) was “not active”, the antimicrobial activity (Pseudomonas aeruginosa) was “not active” and the antimicrobial activity [16] was “not active”.
